{"source": "patent US20230310441A1", "about": "“TREATMENT FOR SCHIZOPHRENIA” (TAKEDA PHARMACEUTICAL COMPANY, priority 2020, published 2023)", "assay": "Phase 1 FIH study: safety and tolerability (TEAEs) in healthy participants", "assay_type": "in vivo, human", "description": "A phase 1 first-in-human (FIH) study was conducted at a single site in the United States to evaluate the safety, tolerability, and pharmacokinetics (PK) of Compound (I). Specifically, Compound (I) was tested to evaluate the safety, tolerability, and PK of single and multiple doses in healthy participants and as add-on therapy to antipsychotics in participants with stable schizophrenia. The phase I study also assessed the oral bioavailability of Compound (I) in healthy participants administered a tablet formulation compared to an oral suspension formulation in a fasted state, as well the effect of a high-fat, high-calorie meal on the PK of a single dose of a tablet formulation of Compound (I). Additional exploratory pharmacodynamic analysis was undertaken in patients with stable schizophrenia to inform future studies.\nCohorts in Parts 1 and 2 were randomized to receive either Compound (I) or placebo in a 6:2 ratio. Cohorts in Part 3 were randomized in a 1:1 ratio, while the cohort in Part 4 was randomized in a 2:1 ratio.\nPart 1 was a double-blind, SRD study in healthy adults, utilizing an alternate panel design (cohorts 1, 2) and sequential panel design (cohorts 3-5). Cohorts 1 and 2 were part of a two-period, alternating-panel, double-blind study of Compound (I) administered as an oral suspension (5 mg, 10 mg, 20 mg, or 40 mg) or matched placebo, with a washout period of at least 7 days between treatment periods. Cohorts 3-5 were part of a sequential-panel, double-blind study to evaluate the SRDs of Compound (I) (80, 120, or 160 mg, respectively) or matched placebo. Although planned, all subsequent doses after the dose of 80 mg were determined based on emerging safety, tolerability, and PK data from the preceding cohorts.\nIn Part 2, participants received either placebo on all dosing days or a loading dose of Compound (I) on Day 1 and a maintenance dose of half the initial dose on Days 8, 15 and 22, administered as an oral suspension. Baseline measurements were obtained on Day −2, and study-specific measurements were obtained following oral dose administrations on Days 1, 8, 15, and 22.\nPart 3 was a randomized, open-label, single-dose, parallel design study to evaluate the bioavailability of a Compound (I) tablet formulation relative to a Compound (I) oral suspension formulation and the effect of food on the PK in healthy participants. The immediate release tablet contained mannitol, microcrystalline cellulose, and other commonly used excipients. Participants were randomized 1:1 to receive a single 40 mg dose of Compound (I) as a tablet after either 10 h overnight fast, or 30 min after beginning ingestion of a high-fat, high-calorie breakfast.\nSafety measurements used in the phase 1 study included treatment-emergent adverse events (TEAEs), physical examinations, weight, height, BMI, vital signs, clinical laboratory evaluations, pregnancy monitoring, and ECG procedures.\nTEAEs were defined as any adverse event that occurred or worsened after receiving the first dose of Compound (I) and within 6 weeks after the last dose of Compound (I). Participants experiencing two or more different TEAEs were counted only once. Frequent TEAEs were defined as adverse events that occurred in at least two participants in any treatment. Participants were evaluated with respect to mood and alertness (BL-VAS) and suicidality (C-SSRS).", "key": {"[1]": {"details": "Part 2 MRD, 40/20 mg, N = 6, participants (percent)"}, "[2]": {"details": "Part 2 MRD, 80/40 mg, N = 6, participants (percent)"}, "[3]": {"details": "Part 2 MRD, 120/60 mg, N = 6, participants (percent)"}, "[4]": {"details": "Part 2 MRD, 160/80 mg, N = 6, participants (percent)"}}, "data": [{"compound": "C[C@H](NC(=O)Cn1nnc2ccccc2c1=O)c1ccc(OC(F)(F)F)cc1", "note": "[Compound (I), (S)-2-(4-oxobenzo[d][1,2,3]triazin-3(4H)-yl)-N-(1-(4-(trifluoromethoxy)phenyl)ethyl)acetamide]", "values": [{"measurement": "TEAEs related to the study drug (investigator)", "setting": "Part 1 (SRD)", "result": "None of the TEAEs were considered to be related to the study drug"}, {"measurement": "participants who experienced a TEAE", "setting": "Part 1 (SRD), participants who received Compound (I)", "result": 20.0, "unit": "%"}, {"measurement": "Any TEAE", "setting": "[1]", "result": "4 (66.7)"}, {"measurement": "TEAE Mild", "setting": "[1]", "result": "4 (66.7)"}, {"measurement": "TEAE Not related", "setting": "[1]", "result": "4 (66.7)"}, {"measurement": "Any TEAE", "setting": "[2]", "result": "4 (66.7)"}, {"measurement": "TEAE Mild", "setting": "[2]", "result": "4 (66.7)"}, {"measurement": "TEAE Not related", "setting": "[2]", "result": "3 (50.0)"}, {"measurement": "TEAE Related", "setting": "[2]", "result": "1 (16.7)"}, {"measurement": "Any TEAE", "setting": "[3]", "result": "3 (50.0)"}, {"measurement": "TEAE Mild", "setting": "[3]", "result": "2 (33.3)"}, {"measurement": "TEAE Moderate", "setting": "[3]", "result": "1 (16.7)"}, {"measurement": "TEAE Not related", "setting": "[3]", "result": "3 (50.0)"}, {"measurement": "Any TEAE", "setting": "[4]", "result": "5 (83.3)"}, {"measurement": "TEAE Mild", "setting": "[4]", "result": "5 (83.3)"}, {"measurement": "TEAE Not related", "setting": "[4]", "result": "2 (33.3)"}, {"measurement": "TEAE Related", "setting": "[4]", "result": "3 (50.0)"}, {"measurement": "participants who experienced a TEAE", "setting": "Part 3, single dose after overnight fast of at least 10 h, tablet", "result": 11.1, "unit": "%"}, {"measurement": "participants who experienced a TEAE", "setting": "Part 3, single dose following high-fat, high-calorie breakfast, tablet", "result": 22.2, "unit": "%"}, {"measurement": "discontinuations due to TEAEs", "setting": "phase 1 study, all parts", "result": "No discontinuations due to TEAEs occurred"}, {"measurement": "deaths, serious adverse events, or other significant TEAEs", "setting": "phase 1 study, all parts, 114 randomized participants", "result": "No deaths, serious adverse events, or other significant TEAEs were reported"}, {"measurement": "tolerability", "setting": "phase 1 study, single and repeated oral doses, healthy volunteers and patients with stable schizophrenia", "result": "generally well-tolerated"}, {"measurement": "headache frequency vs placebo", "setting": "phase 1 study, frequency appeared to increase with higher doses", "result": "more frequently with Compound (I) than with placebo"}]}]}
